Consider 20 compounds from patent US10604484B2, “Indolone compounds and their use as AMPA receptor modulators” (Janssen Pharmaceutica NV, priority 2015, dated 2020).

The structures appear in SMILES notation.

The target of this experiment is T1, GluA1o-γ8 (Homo sapiens, UniProt P42261+Q8WXS5).
T1 construct: expressed in transfected cells
T1 sequence (P42261+Q8WXS5 fused): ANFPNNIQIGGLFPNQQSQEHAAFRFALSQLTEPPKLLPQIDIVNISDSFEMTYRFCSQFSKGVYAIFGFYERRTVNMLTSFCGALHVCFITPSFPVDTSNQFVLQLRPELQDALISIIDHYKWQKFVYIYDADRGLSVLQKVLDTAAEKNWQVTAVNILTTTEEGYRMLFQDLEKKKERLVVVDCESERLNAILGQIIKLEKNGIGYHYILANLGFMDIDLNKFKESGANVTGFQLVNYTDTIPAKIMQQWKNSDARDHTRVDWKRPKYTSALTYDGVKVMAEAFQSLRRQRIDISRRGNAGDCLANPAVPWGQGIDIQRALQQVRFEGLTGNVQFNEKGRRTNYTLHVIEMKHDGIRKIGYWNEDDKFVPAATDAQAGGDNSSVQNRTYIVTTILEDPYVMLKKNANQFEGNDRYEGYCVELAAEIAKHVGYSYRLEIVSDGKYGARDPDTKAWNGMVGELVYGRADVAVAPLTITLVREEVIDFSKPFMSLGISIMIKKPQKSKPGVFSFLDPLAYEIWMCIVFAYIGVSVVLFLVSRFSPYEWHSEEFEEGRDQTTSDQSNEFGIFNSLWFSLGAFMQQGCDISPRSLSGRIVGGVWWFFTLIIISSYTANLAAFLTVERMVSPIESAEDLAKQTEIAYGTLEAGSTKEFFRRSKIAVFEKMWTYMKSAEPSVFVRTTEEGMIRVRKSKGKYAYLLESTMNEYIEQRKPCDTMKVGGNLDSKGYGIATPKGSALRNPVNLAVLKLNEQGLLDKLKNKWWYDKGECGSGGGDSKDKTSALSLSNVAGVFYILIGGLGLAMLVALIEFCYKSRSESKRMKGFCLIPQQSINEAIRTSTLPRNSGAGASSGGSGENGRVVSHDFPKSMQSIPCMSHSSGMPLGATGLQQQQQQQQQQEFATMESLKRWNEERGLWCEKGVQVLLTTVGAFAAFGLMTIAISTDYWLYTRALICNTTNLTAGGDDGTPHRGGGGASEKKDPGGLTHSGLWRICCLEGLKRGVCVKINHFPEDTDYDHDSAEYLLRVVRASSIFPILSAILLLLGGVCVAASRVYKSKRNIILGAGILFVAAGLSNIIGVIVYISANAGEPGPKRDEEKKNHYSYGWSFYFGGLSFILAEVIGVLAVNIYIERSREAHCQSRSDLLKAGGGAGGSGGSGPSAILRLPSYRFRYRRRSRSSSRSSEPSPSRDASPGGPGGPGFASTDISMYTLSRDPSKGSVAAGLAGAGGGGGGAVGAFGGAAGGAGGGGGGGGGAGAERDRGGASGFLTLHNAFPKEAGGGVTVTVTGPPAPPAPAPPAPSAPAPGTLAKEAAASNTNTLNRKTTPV
The experiment is described as follows: Calcium flux assay (FLIPR), inhibition of glutamate response of GluA1o-γ8 channel in HEK293 cells. It counts as cell-based. To be noted: HEK293 cells stably expressing GRIA1o-CACNG8 fusion; 15 μM glutamate; pIC50 = negative log of the IC50 in molar; read-out: GluR1-γ8 pIC50 (converted). The source says: This assay was used to test compounds for their ability to inhibit TARP γ8 dependent AMPA receptor activity. The AMPA receptor is a non-selective cation channel activated by glutamate. Ionotropic glutamate receptors normally desensitize too rapidly to allow detectable calcium influx in a FLIPR assay (Strange et al. (2006). “Functional characterisation of homomeric ionotropic glutamate receptors GluR1-GluR6 in a fluorescence-based high throughput screening assay.” Comb Chem High Throughput Screen 9(2): 147-158). But, this desensitization is incomplete, and a substantial steady-state current remains in the sustained presence of glutamate (Cho et al. (2007). “Two families of TARP isoforms that have distinct effects on the kinetic properties of AMPA receptors and synaptic currents.” Neuron 55(6): 890-904).
An in vitro assay was used to determine the potency of test compounds as inhibitors of the glutamate response of the channel formed by GluA1o-γ8. To ensure a 1:1 stoichiometry of GluA1o and γ8 subunits in the expressed channel, a fusion of the cDNAs for GRIA1o and CACNG8 was used. Following Shi et al (2009) “The stoichiometry of AMPA receptors and TARPs varies by neuronal cell type.” Neuron 62(5): 633-640), the C-terminus of the cDNA for GRIA1o was fused to the N-terminus of the cDNA for γ8. The linker sequence was QQQQQQQQQQEFAT. Channels expressed with this construct appear to have similar properties to channels formed by co-expression of GRIA1o with an excess of CACNG8 (Shi et al. 2009). A clonal cell line in HEK293 cells stably expressing this construct, with a geneticin selection marker, was generated for use in this assay. Cell expressing the GRIA1o-CACNG8 fusion construct were grown in a monolayer in 96- or 384-well microtiter plates. They were washed with assay buffer (135 mM NaCl, 4 mM KCl, 3 mM CaCl2, 1 mM MgCl2, 5 mM glucose, 10 mM HEPES, pH 7.4, 300 mOs) using a Biotek EL405 plate washer. The cells were then loaded with a calcium-sensitive dye (Calcium-5 or Calcium-6, Molecular Devices) and the test compounds at a range of concentrations. Calcium flux following the addition of 15 μM glutamate was monitored using a Molecular Devices FLIPR Tetra.
The fluorescence in each well was normalized to the fluorescence of negative and positive control wells. The negative control wells had no added compounds, and the positive control wells had been incubated with 10 μM CP465022 (a non-subtype-selective AMPA receptor antagonist) (Lazzaro et al. (2002). “Functional characterization of CP-465,022, a selective, noncompetitive AMPA receptor antagonist.” Neuropharmacology 42(2): 143-153). The responses to glutamate as functions of the test compound concentrations were fitted to a four-parameter logistic function. The fitted parameter corresponding to the midpoint was taken to be the potency of inhibition of the compound. The data in Table 4 below illustrates the observed potentcy for the compounds described herein. pIC50 refers to the negative log of the IC50 in molar.
(Calcium flux is commonly read through the fluorescence of an indicator in the cells.)
Regarding `Cc1cc(-c2c(C)ccnc2Cl)cc2c1NC(=O)C2` [Example 149, 5-(2-Chloro-4-methyl-3-pyridyl)-7-methyl-indolin-2-one], the IC50 is 15.8 nM.
On to `COc1nccc(C)c1-c1cc(C)c2c(c1)CC(=O)N2` [Example 150, 5-(2-Methoxy-4-methyl-3-pyridyl)-7-methyl-indolin-2-one], for which the IC50 is 31.6 nM.
For `Cc1cc(-c2c(C)ccnc2C)cc2c1NC(=O)C2` [Example 151, 5-(2,4-Dimethyl-3-pyridyl)-7-methyl-indolin-2-one], the IC50 was 631 nM.
To `Cc1cc(-c2c(Cl)ccnc2Cl)cc2c1NC(=O)C2` [Example 152, 5-(2,4-Dichloro-3-pyridyl)-7-methyl-indolin-2-one] belongs 3.16 nM; to `O=C1Cc2cc(-c3c(Cl)cccc3OC(F)(F)F)cc(Cl)c2N1` [Example 153, 7-Chloro-5-[2-chloro-6-(trifluoromethoxy)phenyl]indolin-2-one], 0.0794 nM.
With `O=C1Cc2cc(-c3c(Cl)cccc3OC(F)F)cc(Cl)c2N1` [Example 154, 7-Chloro-5-[2-chloro-6-(difluoromethoxy)phenyl]indolin-2-one] the figure was 0.316 nM.
Regarding `CC(C)(C#N)c1cccc(Cl)c1-c1cc(Cl)c2c(c1)CC(=O)N2` [Example 155, 2-[3-Chloro-2-(7-chloro-2-oxo-indolin-5-yl)phenyl]-2-methyl-propanenitrile], the IC50 was 0.158 nM.
With `N#Cc1ccc(Cl)c(-c2cc(Cl)c3c(c2)CC(=O)N3)c1OC(F)(F)F` [Example 156, 4-Chloro-3-(7-chloro-2-oxo-indolin-5-yl)-2-(trifluoromethoxy)benzonitrile] the figure was 0.0794 nM.
For the compound `O=C1Cc2cc(-c3c(Cl)cncc3OC(F)(F)F)cc(Cl)c2N1` [Example 157, 7-Chloro-5-(3-chloro-5-(trifluoromethoxy)pyridin-4-yl)indolin-2-one], the IC50 was 6.31 nM.
To `O=C1Cc2cc(-c3c(Cl)cncc3OC(F)F)cc(Cl)c2N1` [Example 158, 7-Chloro-5-[3-chloro-5-(difluoromethoxy)-4-pyridyl]indolin-2-one] belongs 7.94 nM; to `O=C1Cc2cc(-c3c(Cl)cncc3Cl)cc(Cl)c2N1` [Example 159, 7-Chloro-5-(3,5-dichloro-4-pyridyl)indolin-2-one], 7.94 nM.
With `Cc1ccnc(Cl)c1-c1cc(Cl)c2c(c1)CC(=O)N2` [Example 160, 7-Chloro-5-(2-chloro-4-methyl-3-pyridyl)indolin-2-one] the figure was 6.31 nM; with `Cc1ccnc(C)c1-c1cc(Cl)c2c(c1)CC(=O)N2` [Example 161, 7-Chloro-5-(2,4-dimethyl-3-pyridyl)indolin-2-one], 158 nM; with `COc1nccc(C)c1-c1cc(Cl)c2c(c1)CC(=O)N2` [Example 162, 7-Chloro-5-(2-methoxy-4-methyl-3-pyridyl)indolin-2-one], 7.94 nM.
To `O=C1Cc2cc(-c3c(Cl)ccnc3Cl)cc(Cl)c2N1` [Example 163, 7-Chloro-5-(2,4-dichloro-3-pyridyl)indolin-2-one] belongs 1.58 nM.
For `Cc1cccc(C#N)c1-c1cc(Cl)c2c(c1)CC(=O)N2` [Example 164, 2-(7-Chloro-2-oxo-indolin-5-yl)-3-methyl-benzonitrile], the IC50 was 1.58 nM.
Regarding `Cc1cccc(Cl)c1-c1cc(Cl)c2c(c1)CC(=O)N2` [Example 165, 7-Chloro-5-(2-chloro-6-methyl-phenyl)indolin-2-one], the IC50 is 0.0631 nM.
As to `Cc1cccc(F)c1-c1cc(Cl)c2c(c1)CC(=O)N2` [Example 166, 7-Chloro-5-(2-fluoro-6-methyl-phenyl)indolin-2-one], the IC50 is 0.794 nM.
With `Cc1cccc(C(F)(F)F)c1-c1cc(Cl)c2c(c1)CC(=O)N2` [Example 167, 7-Chloro-5-[2-methyl-6-(trifluoromethyl)phenyl]indolin-2-one] the figure was 0.316 nM; with `CCc1cc(-c2c(Cl)cccc2OC(F)(F)F)cc2c1NC(=O)C2` [Example 168, 5-[2-Chloro-6-(trifluoromethoxy)phenyl]-7-ethyl-indolin-2-one], 0.0501 nM.
